Experimental data taken from ChEMBL document CHEMBL5584321, “Chemoenzymatic Synthesis of DNP-Functionalized FGFR1-Binding Peptides as Novel Peptidomimetic Immunotherapeutics for Treating Lung Cancer” (J Med Chem, 2024).
pKd: −log10 of the molar value. Active and inactive are the calls of the source. No cut-off for these calls is given here. Where a SMILES comes first, the peptide text is derived from it. The star is where a group is joined. X1 = O=[N+]([O-])c1ccc(OCCOCCOCCOCCOCCOCCN*)c([N+](=O)[O-])c1

How the values were obtained:
[1] = Half life in immunized Sprague-Dawley rat at 1.5 mg/kg,SC administration measured upto 24 hrs by fluorescence based microplate reader assay; assay type: ADME, organism-based; details: in vivo
[2] = Tmax in immunized Sprague-Dawley rat at 1.5 mg/kg,SC administration measured upto 24 hrs by fluorescence based microplate reader assay; assay type: ADME, organism-based; details: in vivo
[3] = Cmax in immunized Sprague-Dawley rat at 1.5 mg/kg,SC administration measured upto 24 hrs by fluorescence based microplate reader assay; assay type: ADME, organism-based; details: in vivo
[4] = Binding affinity to CM5 sensor chip immobilized human full-length wild type FGFR1c assessed as dissociation constant by SPR analysis
L6 [5] = experiment: Antiproliferative activity against FGF2-induced rat L6 cells stably expressing human full-length FGFR1c assessed as inhibition of cell growth incubated for 36 hrs by CCK-8 assay; assay type: functional, cell-based
L6 [6] = experiment: Induction of apoptosis in FGF2-induced rat L6 cells stably expressing human full-length FGFR1c assessed as downregulation of BCL-2 expression at 50 uM incubated for 24 hrs by Western blotting analysis; assay type: functional, cell-based
L6 [7] = experiment: Induction of apoptosis in FGF2-induced rat L6 cells stably expressing human full-length FGFR1c assessed as upregulation of cleaved caspase-3 expression at 50 uM incubated for 24 hrs by Western blotting analysis; assay type: functional, cell-based
L6 [8] = experiment: Induction of apoptosis in FGF2-induced rat L6 cells stably expressing human full-length FGFR1c assessed as upregulation of cleaved PARP expression at 50 uM incubated for 24 hrs by Western blotting analysis; assay type: functional, cell-based
L6 [9] = experiment: Binding affinity to FGFR1c in rat L6 cells assessed as increase in green fluorescence signal incubated for 1 hr by Alexa-488 staining based confocal fluorescence microscopic analysis; assay type: cell-based
L6 [10] = experiment: Binding affinity to human full-length wild type FGFR1c stably expressed in rat L6 cells assessed as increase in green fluorescence signal incubated for 1 hr by Alexa-488 staining based confocal fluorescence microscopic analysis; assay type: cell-based
NCI-H1581 [11] = experiment: Binding affinity to FGFR1c in human NCI-H1581 cells assessed as increase in green fluorescence signal incubated for 1 hr by Alexa-488 staining based confocal fluorescence microscopic analysis; assay type: cell-based
NCI-H1581 [12] = experiment: Binding affinity to FGFR1c in human NCI-H1581 cells assessed as increase in fluorescence signal by antibody recruiting based flow cytometry; assay type: cell-based
L6 [13] = experiment: Binding affinity to human full-length wild type FGFR1c stably expressed in rat L6 cells assessed as fluorescence intensity at 10 uM by antibody recruiting based flow cytometry; assay type: cell-based
NCI-H1581 [14] = experiment: Binding affinity to FGFR1c in human NCI-H1581 cells assessed as fluorescence intensity at 10 uM by antibody recruiting based flow cytometry; assay type: cell-based
L6 [15] = experiment: Binding affinity to human full-length wild type FGFR1c stably expressed in rat L6 cells assessed as fold change in fluorescence intensity at 10 uM by antibody recruiting based flow cytometry relative to Pep1; assay type: cell-based
NCI-H1581 [16] = experiment: Binding affinity to FGFR1c in human NCI-H1581 cells assessed as fold change in fluorescence intensity at 10 uM by antibody recruiting based flow cytometry relative to Pep1; assay type: cell-based
L6 [17] = experiment: Induction of cell lysis in rat L6 cells stably expressing human full-length FGFR1c at 1 uM incubated for 1 hr by complement dependent cytotoxicity based CCK-8 assay relative to control; assay type: functional
NCI-H1581 [18] = experiment: Induction of cell lysis in human NCI-H1581 cells at 1 uM incubated for 1 hr by complement dependent cytotoxicity based CCK-8 assay relative to control; assay type: functional
L6 [19] = experiment: Induction of cell lysis in rat L6 cells at 1 uM incubated for 1 hr by complement dependent cytotoxicity based CCK-8 assay relative to control; assay type: functional
[20] = Toxicity in BALB/c mouse xenografted with human NCI-H1581 cells assessed as change in body weight at 20 mg/kg,SC administrated once daily for 12 days; assay type: organism-based; details: in vivo, 288 h, time 12 day
[21] = Toxicity in BALB/c mouse xenografted with human NCI-H1581 cells assessed as change in heart weight at 20 mg/kg,SC administrated once daily for 12 days; assay type: organism-based; details: in vivo, 288 h, time 12 day
[22] = Toxicity in BALB/c mouse xenografted with human NCI-H1581 cells assessed as change in liver weight at 20 mg/kg,SC administrated once daily for 12 days; assay type: organism-based; details: in vivo, 288 h, time 12 day
[23] = Toxicity in BALB/c mouse xenografted with human NCI-H1581 cells assessed as change in spleen weight at 20 mg/kg,SC administrated once daily for 12 days; assay type: organism-based; details: in vivo, 288 h, time 12 day
[24] = Toxicity in BALB/c mouse xenografted with human NCI-H1581 cells assessed as change in lung weight at 20 mg/kg,SC administrated once daily for 12 days; assay type: organism-based; details: in vivo, 288 h, time 12 day
[25] = Toxicity in BALB/c mouse xenografted with human NCI-H1581 cells assessed as change in kidney weight at 20 mg/kg,SC administrated once daily for 12 days; assay type: organism-based; details: in vivo, 288 h, time 12 day
[26] = Hepatotoxicity in BALB/c mouse xenografted with human NCI-H1581 cells assessed as change in AST level at 20 mg/kg,SC administrated once daily for 12 days; assay type: toxicity, organism-based; details: in vivo, 288 h, time 12 day
[27] = Hepatotoxicity in BALB/c mouse xenografted with human NCI-H1581 cells assessed as change in ALT level at 20 mg/kg,SC administrated once daily for 12 days; assay type: toxicity, organism-based; details: in vivo, 288 h, time 12 day
[28] = Renal toxicity in BALB/c mouse xenografted with human NCI-H1581 cells assessed as change in creatinine level at 20 mg/kg,SC administrated once daily for 12 days; assay type: organism-based; details: in vivo, 288 h, time 12 day
[29] = Renal toxicity in BALB/c mouse xenografted with human NCI-H1581 cells assessed as change in urea level at 20 mg/kg,SC administrated once daily for 12 days; assay type: organism-based; details: in vivo, 288 h, time 12 day
[30] = Toxicity in BALB/c mouse xenografted with human NCI-H1581 cells assessed as inflammation in lung at 20 mg/kg,SC administrated once daily for 12 days by hematoxylin and eosin staining based analysis; assay type: organism-based; details: in vivo, 288 h, time 12 day
[31] = Toxicity in BALB/c mouse xenografted with human NCI-H1581 cells assessed as inflammation in kidney at 20 mg/kg,SC administrated once daily for 12 days by hematoxylin and eosin staining based analysis; assay type: organism-based; details: in vivo, 288 h, time 12 day
[32] = Toxicity in BALB/c mouse xenografted with human NCI-H1581 cells assessed as cell necrosis in heart at 20 mg/kg,SC administrated once daily for 12 days by hematoxylin and eosin staining based analysis; assay type: organism-based; details: in vivo, 288 h, time 12 day
[33] = Toxicity in BALB/c mouse xenografted with human NCI-H1581 cells assessed as cell necrosis in spleen at 20 mg/kg,SC administrated once daily for 12 days by hematoxylin and eosin staining based analysis; assay type: organism-based; details: in vivo, 288 h, time 12 day
[34] = Toxicity in BALB/c mouse xenografted with human NCI-H1581 cells assessed as cell necrosis in lung at 20 mg/kg,SC administrated once daily for 12 days by hematoxylin and eosin staining based analysis; assay type: organism-based; details: in vivo, 288 h, time 12 day
[35] = Toxicity in BALB/c mouse xenografted with human NCI-H1581 cells assessed as cell necrosis in kidney at 20 mg/kg,SC administrated once daily for 12 days by hematoxylin and eosin staining based analysis; assay type: organism-based; details: in vivo, 288 h, time 12 day
NCI-H1581 [36] = experiment: Antitumor activity against human NCI-H1581 cells xenografted BALB/c mouse model assessed as inhibition of tumor proliferation by measuring decrease in Ki67 positive cells at 20 mg/kg,SC administrated once daily for 12 days; assay type: functional, organism-based; details: time 12.0 day

CC(C)C[C@H](NC(=O)[C@H](C)NC(=O)[C@@H](NC(=O)[C@H](Cc1ccc(O)cc1)NC(=O)[C@H](Cc1c[nH]c2ccccc12)NC(=O)[C@H](CO)NC(=O)[C@H](CO)NC(=O)[C@H](Cc1ccc(O)cc1)NC(=O)[C@H](CCCCN)NC(=O)[C@H](CCCNC(=N)N)NC(=O)[C@H](CO)NC(=O)[C@H](CCCNC(=N)N)NC(=O)[C@@H](N)Cc1ccc(O)cc1)C(C)C)C(=O)N[C@@H](CCCCN)C(=O)N[C@@H](CCCNC(=N)N)C(=O)N[C@@H](CC(C)C)C(=O)N1CCC[C@H]1C(=O)N[C@@H](CCC(=O)O)C(=O)N[C@H](C(=O)NCC(=O)NCC(=O)NCC(=O)NCCOCCOCCOCCOCCOCCOc1ccc([N+](=O)[O-])cc1[N+](=O)[O-])[C@@H](C)O (H-YRSRKYSSWYVALKRLPETGGG-X1)
half-life [1]: 18.1 h | Tmax [2]: 1.67 h | Cmax [3]: 273 ng/mL | pKd [4]: 5.30 | Activity (L6 [5]): Dose-Dependent Effect | Activity (L6 [6]): Active | Activity (L6 [7]): Active | Activity (L6 [8]): Active | Activity (L6 [9]): inactive | Activity (L6 [10]): Active | Activity (NCI-H1581 [11]): Active | Activity (NCI-H1581 [12]): Dose-Dependent Effect | Flu intensity (L6 [13]): 1.8 10^4No_unit | Flu intensity (NCI-H1581 [14]): 5.7 10^3No_unit | fold change (FC) (L6 [15]): 200 | fold change (FC) (NCI-H1581 [16]): 36 | Activity (L6 [17]): 45.8% | Activity (NCI-H1581 [18]): 44.5% | Activity (L6 [19]): inactive | Activity [20]: Non-Toxic | Activity [21]: Non-Toxic | Activity [22]: Non-Toxic | Activity [23]: Non-Toxic | Activity [24]: Non-Toxic | Activity [25]: Non-Toxic | Activity [26]: Non-Toxic | Activity [27]: Non-Toxic | Activity [28]: Non-Toxic | Activity [29]: Non-Toxic | Activity [30]: Non-Toxic | Activity [31]: Non-Toxic | Activity [32]: Non-Toxic | Activity [33]: Non-Toxic | Activity [34]: Non-Toxic | Activity [35]: Non-Toxic | Activity (NCI-H1581 [36]): Active
